The values that follow come from patent US8101632B2, “5-furopyridinone substituted indazoles” (Albany Molecular Research, Inc., priority 2007, dated 2012).

SMILES strings stand for the structures. Counter-ions that a name gives are not always drawn.

For the molecule `COc1cc(Cl)ccc1-c1cc2c(=O)n(-c3ccc4c(cnn4CCN4CCCC4)c3)ccc2o1.Cl`, the melting point – broadly, the temperature of the solid-liquid transition – was in the range of 240 to 242 °C.
In the case of `Cl.O=c1c2cc(-c3ccccc3Cl)oc2ccn1-c1ccc2c(cnn2CCN2CCCC2)c1` it was 102 to 104 °C; in that of `Cl.N#Cc1cc(F)ccc1-c1cc2c(=O)n(-c3ccc4c(cnn4CCN4CCCC4)c3)ccc2o1`, 120 to 122 °C.
Take `Cl.O=c1c2cc(-c3ccc(F)cc3Cl)oc2ccn1-c1ccc2c(cnn2CCN2CCCC2)c1`: the melting point lay in the range of 140 to 142 °C.
Molecule `Cl.O=c1c2cc(-c3ccc(Cl)cc3F)oc2ccn1-c1ccc2c(cnn2CCN2CCCC2)c1` displayed a melting point of 256 to 258 °C.
With `Cl.O=c1c2cc(-c3ccc(F)cc3)oc2ccn1-c1ccc2c(cnn2CCN2CCCC2)c1`, the melting point is 218 to 220 °C.
The figure for `Cl.O=c1c2cc(-c3ccc(C(F)(F)F)cc3)oc2ccn1-c1ccc2c(cnn2CCN2CCCC2)c1` is 252 to 254 °C; for `Cl.O=c1c2cc(-c3ccccc3F)oc2ccn1-c1ccc2c(cnn2CCN2CCCC2)c1` it is 264 to 266 °C.
In the case of `Cl.O=c1c2cc(-c3ccc(F)cc3F)oc2ccn1-c1ccc2c(cnn2CCN2CCCC2)c1` it was 256 to 258 °C; in that of `Cc1ccc(-c2cc3c(=O)n(-c4ccc5c(cnn5CCN5CCCC5)c4)ccc3o2)c(F)c1.Cl`, 268 to 270 °C.
Turning to `Cc1ccc(-c2cc3c(=O)n(-c4ccc5c(cnn5CCN5CCCC5)c4)ccc3o2)cc1.Cl`, the melting point fell in the range of 262 to 264 °C.
In the case of `Cc1ccc(-c2cc3c(=O)n(-c4ccc5c(cnn5CCN5CCCC5)c4)ccc3o2)nn1.Cl` it was 282 to 284 °C; in that of `Cl.O=c1c2cc(-c3ccc(Cl)cc3)oc2ccn1-c1ccc2c(cnn2CCN2CCOCC2)c1`, 260 to 268 °C (dec.).
In the case of `Cl.O=c1c2cc(-c3ccc(Cl)cc3)oc2ccn1-c1ccc2c(cnn2CCN2CCNCC2)c1` it was 298 to 300 °C (dec.).
In the case of `Cl.O=c1c2cc(-c3ccc(Cl)cc3)oc2ccn1-c1ccc2c(cnn2CCN2CC[C@@H](O)C2)c1` it was 242 to 246 °C (dec.).
The molecule `Cl.O=c1c2cc(-c3ccc(Cl)cc3Cl)oc2ccn1-c1ccc2c(cnn2CCN2CCCC2)c1` gave a melting point of 258 to 260 °C.
In the case of `O=c1c2cc(-c3ccccn3)oc2ccn1-c1ccc2c(cnn2CCN2CCCC2)c1` (as salt: hydrochloride) it was 50 to 52 °C.
Turning to `O=c1c2cc(-c3ccc(Cl)cn3)oc2ccn1-c1ccc2c(cnn2CCN2CCCC2)c1` (as salt: hydrochloride) [Example 17, 2-(5-Chloropyridin-2-yl)-5-(1-(2-(pyrrolidin-1-yl)ethyl)-1H-indazol-5-yl)furo[3,2-c]pyridin-4(5H)-one dihydrochloride], the melting point lay within 268 to 270 °C.
The figure for `O=c1c2cc(-c3cccnc3)oc2ccn1-c1ccc2c(cnn2CCN2CCCC2)c1` (as salt: hydrochloride) [Example 22, 2(Pyridin-3-yl)-5-(1-(2-(pyrrolidin-1-yl)ethyl)-1H-indazol-5-yl)furo[3,2-c]pyridin-4(5H)-one dihydrochloride] is 188 to 190 °C.
On to `O=c1c2cc(-c3ccc(F)cn3)oc2ccn1-c1ccc2c(cnn2CCN2CCCC2)c1` (as salt: hydrochloride) [Example 23, 2-(5-Fluoropyridin-2-yl)-5-(1-(2-(pyrrolidin-1-yl)ethyl)-1H-indazol-5-yl)furo[3,2-c]pyridin-4(5H)-one dihydrochloride], for which the melting point was in the range of 266 to 268 °C.
In the case of `O=c1c2cc(-c3ncccn3)oc2ccn1-c1ccc2c(cnn2CCN2CCCC2)c1` (as salt: hydrochloride) [Example 26, 2-(Pyrimidin-2-yl)-5-(1-(2-(pyrrolidin-1-yl)ethyl)-1H-indazol-5-yl)furo[3,2-c]pyridin-4(5H)-one Dihydrochloride] it was 272 to 274 °C.
